# Patent US20230255974A1, “USE OF THYROMIMETICS FOR THE TREATMENT OF CANCER” (THE UNIVERSITY OF VERMONT, priority 2020, published 2023)
# Experiments:
# MDA-MB-453 cells = assay: Relative cell growth by cell counting, HER2+ breast cancer cells; format: cell-based; details: MDA-MB-453, 10 nM GC-1, 8 days
# Protocol: A similar study was then performed in MDA-MB-453 cells, human epidermal growth factor positive-HER2+, breast cancer cells.
# MCF7 = assay: Mammosphere growth, Luminal A breast cancer cells; format: cell-based; details: MCF7, 10 nM GC-1, 5 days
# Excerpt: Data are mean+/−SD; * indicates p<0.05 determined by t-test.
smiles,measurement,setting,value
"Cc1nc(NC(=O)N2CCC[C@H]2C(N)=O)sc1-c1ccnc(C(C)(C)C(F)(F)F)c1 [Alpelisib, (2S)-1-N-[4-methyl-5-[2-(1,1,1-trifluoro-2-methylpropan-2-yl)pyridin-4-yl]-1,3-thiazol-2-yl]pyrrolidine-1,2-dicarboxamide]","cell growth, inhibitor in the presence of GC-1",MDA-MB-453 cells,enhanced the effect of Alpelisib in reducing cell growth
same,effect of inhibitor in the presence of GC-1,MCF7,enhanced the effect
